Assay results as given in US20260185163A1, “MEN1 MUTATIONS AND USES THEREOF” (DANA-FARBER CANCER INSTITUTE, INC., priority 2022, published 2026).
Entries after “also recorded” stand apart in the source; their conditions may differ.

Experiments:
Format in all cases: cell-based, human
[1] = tested on: MOLM13 (MLL::AF9), MV4;11 (MLL::AF4) and OCI-AML3 (NPM1c) cells expressing MEN1-M327I, -G331R and -T349M; assay: dose-response assay after lentiviral expression of MEN1 mutants; conditions: viable cells after 10 days of drug treatment
Description: Cell lines were obtained from the “American Type Culture Collection” (ATCC) or the “Deutsche Sammlung von Mikroorganismen und Zellkulturen” (DSMZ) and cultured in RPMI-1640™ (for MOLM13, MV4;11 and OCI-AML3) or DMEM™ (for HEK-293T)+10% fetal bovine serum (FBS)+1% penicillin/streptomycin (P/S) (Life Technologies/Thermo Fisher Scientific) at 37° C., 5% CO2 atmosphere and 95% humidity. Cell lines were tested and maintained mycoplasma negative throughout all experiments. […]
To determine Menin-inhibitor responses of MOLM13, MV4;11 or OCI-AML3 cell lines expressing MEN1 mutants, 3×10^3 cells were plated per well in a non-tissue culture treated 96-well plate. […] After 6 days, cells were split 1:7 and counts of viable cells in each well were determined after 10 d of treatment by flow cytometry (LSRFortessa™ with High-throughput sampler (HTS), BD Biosciences). Relative cell counts were calculated as % of DMSO control. The average of each triplicate was calculated and the mean of all replicates was plotted. […]

[2] = tested on: M327I- and T349M-mutant MV4;11 cells; assay: dose-response assay, viable cell counts by flow cytometry
Description: (§1) MV4;11 and OCI-AML3 cell lines were passaged 24 h prior to nucleofection. The guide RNA (150 μmol) (sequence: 5′-[…]-3′) was added to Alt-R S.p. HiFi Cas9 nuclease (Integrated DNA Technologies) (125 μmol) followed by an incubation at room temperature (RT) for 20 min to allow formation of ribonucleoprotein (RNP) complexes. 2×10^5 cells were sedimented at 200 g for 10 min at RT, washed with PBS and resuspended in the SG Cell Line Nucleofector™ Solution (Lonza). Cells, Alt-R™ Cas9 Electroporation Enhancer (Lonza) (120 μmol) and the HDR donor oligonucleotide containing the MEN1-M327I mutation as well as a silent mutation at the protospacer adjacent motif (PAM) site (120 μmol) (sequence:5′-[…]-3′) were added to the RNP complex. For wildtype (WT) control, phosphate buffered saline (PBS) (Gibco™, Fisher Scientific) was added to the resuspended cells. Nucleofection was performed using a 16-well 20 μl Nucleocuvette™ stripe (Lonza) in a 4D-Nucleofector™ X Unit (Lonza) (program FF-100). Cells were incubated overnight in RPMI-1640+10% FCS+1% P/S containing 1 μM Alt-R™ HDR enhancer V2 (Lonza) (or DMSO for WT control). The following day, the medium was replaced by RPMI-1640+10% FBS+1% P/S. Single clones were selected in methylcellulose (MethoCult™ M3234, Stemcell™ Technologies) supplemented with 10% RPMI-1640, 10% FBS, 1% P/S and 25 nM SNDX-5613 (or DMSO for WT control), starting 3 days after nucleofection, and expanded in RPMI-1640+10% FCS+1% P/S supplemented with 25 nM SNDX-5613 (or DMSO for WT control). For the in vitro clonal selection assay of bulk nucleofected cells over time, 5×10^3 cells (3 replicates per condition) were seeded in RPMI-1640+10% FBS+1% P/S supplemented with 50 nM SNDX-5613 (or DMSO for WT control) 3 days after nucleofection. Cells were replated in fresh medium+drug every 3 days and viable cells were counted using the LSRFortessa™ (BD Biosciences) flow cytometer. Cumulative cell growth was calculated over 28 days. At each timepoint, cell pellets were frozen and genomic DNA was extracted subsequently using the DNeasy Blood and Tissue Kit™ (QIAGEN). Digital droplet-based PCR was performed from the genomic DNA to assess editing efficiency in the bulk cells over time. To analyze HDR efficiency in single cell clones, genomic DNA was PCR amplified using the Q5 High-Fidelity 2× Master Mix™ (New England BioLabs) and primers (forward: 5′-[…]-3′; reverse: 5′-[…]-3′), and the resulting 641 bp fragment containing the Cas9 cut site was gel-purified using the QIAquick Gel Extraction Kit™ (QIAGEN). Sanger sequencing was used to analyze HDR efficiency (primer 5′-[…]-3′).
(§2) To determine Menin-inhibitor responses of MOLM13, MV4;11 or OCI-AML3 cell lines expressing MEN1 mutants, 3×10^3 cells were plated per well in a non-tissue culture treated 96-well plate. The Menin-inhibitors were titrated on these cells in the following dose-range: DMSO, 3.9 nM, 7.813 nM, 15.625 nM, […], 62.5 nM, 125 nM, 250 nM, 500 nM, 1000 nM. Cells were treated in triplicates on each plate and the experiment was repeated 4 times. After 6 days, cells were split 1:7 and counts of viable cells in each well were determined after 10 d of treatment by flow cytometry (LSRFortessa™ with High-throughput sampler (HTS), BD Biosciences). Relative cell counts were calculated as % of DMSO control. The average of each triplicate was calculated and the mean of all replicates was plotted. Error bars represent the standard error of means (SEM).

[3] = tested on: M327I- and T349M-mutant OCI-AML3 cells; assay: as above
Description: as §1, §2

[4] = tested on: unedited MV4;11 and OCI-AML3 cells; assay: in vitro clonal selection assay, growth of bulk cell populations; conditions: 50 nM
Description: (§3) MV4;11 and OCI-AML3 cell lines were passaged 24 h prior to nucleofection. The guide RNA (150 μmol) (sequence: 5′-[…]-3′) was added to Alt-R S.p. HiFi Cas9 nuclease (Integrated DNA Technologies) (125 μmol) followed by an incubation at room temperature (RT) for 20 min to allow formation of ribonucleoprotein (RNP) complexes. 2×10^5 cells were sedimented at 200 g for 10 min at RT, washed with PBS and resuspended in the SG Cell Line Nucleofector™ Solution (Lonza). Cells, Alt-R™ Cas9 Electroporation Enhancer (Lonza) (120 μmol) and the HDR donor oligonucleotide containing the MEN1-M327I mutation as well as a silent mutation at the protospacer adjacent motif (PAM) site (120 μmol) (sequence:5′-[…]-3′) were added to the RNP complex. For wildtype (WT) control, phosphate buffered saline (PBS) (Gibco™, Fisher Scientific) was added to the resuspended cells. Nucleofection was performed using a 16-well 20 μl Nucleocuvette™ stripe (Lonza) in a 4D-Nucleofector™ X Unit (Lonza) (program FF-100). Cells were incubated overnight in RPMI-1640+10% FCS+1% P/S containing 1 μM Alt-R™ HDR enhancer V2 (Lonza) (or DMSO for WT control). […] Cells were replated in fresh medium+drug every 3 days and viable cells were counted using the LSRFortessa™ (BD Biosciences) flow cytometer. Cumulative cell growth was calculated over 28 days. […]

[5] = tested on: CRISPR-Cas9 M327I-edited MV4;11 and OCI-AML3 cells; assay: as above; conditions: 50 nM
Description: as §3

SMILES | drug sensitivity / resistance phenotype [1] | sensitivity [2] | sensitivity [3] | cell growth [4] | cell growth [5]
CNc1nc(NC2CCN(Cc3ccc4c(cc(C#N)n4CC45CC(NC=O)(C4)C5)c3C)CC2)c2cc(CC(F)(F)F)sc2n1 [MI-3454] | resistance phenotype could similarly be observed | reduced sensitivity | reduced sensitivity | – | –
CCN(C(=O)c1cc(F)ccc1Oc1cncnc1N1CC2(CCN(C[C@H]3CC[C@H](NS(=O)(=O)CC)CC3)CC2)C1)C(C)C [SNDX-5613, revumenib] | robust decrease in SNDX-5613 sensitivity; also recorded: sufficient to establish resistance | reduced sensitivity | reduced sensitivity | stopped dividing shortly after exposure | continued growing beyond 28 days
